pIC50: −log10 of the molar value. Square brackets hold non-standard residues; d marks the D form. Peptide text beside a SMILES is read from it. Cha = N[C@@H](CC1CCCCC1)C(=O)O; Ahx = NCCCCCC(=O)O
Each compound was assayed against Neuropeptide Y receptor type 2 (Oryctolagus cuniculus) (assay: Compound was evaluated for its inhibitory activity against Y2 receptor of rabbit kidney membrane).

| pIC50 | Compound |
| --- | --- |
| 8.10 | CC[C@H](C)[C@H](NC(=O)[C@H](Cc1ccc(O)cc1)NC(=O)[C@H](Cc1c[nH]cn1)NC(=O)[C@H](CCCN=C(N)N)NC(C)=O)C(=O)N[C@@H](CC(N)=O)C(=O)N[C@@H](CC1CCCCC1)C(=O)N[C@@H](CC1CCCCC1)C(=O)N[C@H](C(=O)N[C@@H](CCCN=C(N)N)C(=O)N[C@@H](CCC(N)=O)C(=O)N[C@@H](CCCN=C(N)N)C(=O)N[C@@H](Cc1ccc(O)cc1)C(=O)O)[C@@H](C)O [Ac-RHYIN-(Cha)-(Cha)-TRQRY] (Ac-RHYIN[Cha][Cha]TRQRY-OH) |
| 7.80 | CC[C@H](C)[C@H](NC(=O)[C@H](Cc1ccc(O)cc1)NC(=O)[C@H](Cc1c[nH]cn1)NC(=O)[C@H](CCCN=C(N)N)NC(C)=O)C(=O)N[C@@H](CC(N)=O)C(=O)N[C@@H](CC1CCCCC1)C(=O)N[C@H](C(=O)N[C@H](C(=O)N[C@@H](CCCN=C(N)N)C(=O)N[C@@H](CCC(N)=O)C(=O)N[C@@H](CCCN=C(N)N)C(=O)N[C@@H](Cc1ccc(O)cc1)C(=O)O)[C@@H](C)O)[C@@H](C)CC [Ac-RHYIN-(Cha)-ITRQRY] (Ac-RHYIN[Cha]ITRQRY-OH) |
| 6.74 | CC[C@H](C)[C@H](NC(=O)[C@H](Cc1ccc(O)cc1)NC(=O)[C@H](Cc1cnc[nH]1)NC(=O)[C@H](CCCNC(=N)N)NC(=O)CCCCCNC(=O)[C@H](CCCCN)NC(=O)[C@H](CO)NC(=O)[C@@H]1CCCN1C(=O)[C@@H](N)Cc1ccc(O)cc1)C(=O)N[C@@H](CC(N)=O)C(=O)N[C@@H](CC(C)C)C(=O)N[C@H](C(=O)N[C@H](C(=O)N[C@@H](CCCNC(=N)N)C(=O)N[C@@H](CCC(N)=O)C(=O)N[C@@H](CCCNC(=N)N)C(=O)N[C@@H](Cc1ccc(O)cc1)C(N)=O)[C@@H](C)O)[C@@H](C)CC [Neuropeptide Y analogue] (H-YPSK[Ahx]RHYINLITRQRY-NH2) |
